This passage reports inhibition and activity results from patent US20110144156A1, “A3 ADENOSINE RECEPTOR ALLOSTERIC MODULATORS” (UNIVERSITEIT LEIDEN, priority 2008, published 2011).

The target in test [1] is T1, human A3ARs (Homo sapiens, UniProt P0DMS8).
T1 construct: expressed in transfected cells; host or cells: CHO (Chinese hamster ovary) cells; membrane preparation
T1 sequence (P0DMS8 1-318): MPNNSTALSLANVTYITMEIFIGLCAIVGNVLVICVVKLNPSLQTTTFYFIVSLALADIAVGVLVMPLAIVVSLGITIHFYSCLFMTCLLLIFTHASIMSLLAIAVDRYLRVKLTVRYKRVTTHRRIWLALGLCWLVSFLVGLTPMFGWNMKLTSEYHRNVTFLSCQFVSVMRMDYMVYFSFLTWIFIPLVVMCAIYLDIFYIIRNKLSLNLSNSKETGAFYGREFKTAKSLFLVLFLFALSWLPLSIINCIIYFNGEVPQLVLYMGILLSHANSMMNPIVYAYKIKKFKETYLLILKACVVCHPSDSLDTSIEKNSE
The experiment in a line: Competitive binding assay to the human A3 AR with [125I]I-AB-MECA. To be noted: 1 h, 10 μM test compound; [125I]I-AB-MECA radioligand; CHO cell membranes expressing human A3AR; brackets = individual assays; read-out: % displacement at 10 μM (hA3AR). Here is the method:
(§1) CHO (Chinese hamster ovary) cells expressing the recombinant human A3 receptors were cultured in DMEM and F12 (1:1) supplemented with 10% fetal bovine serum, 100 units/ml penicillin, 100 μg/ml streptomycin and 2 μmol/ml glutamine. Cells were harvested by trypsinization. After homogenization and suspension, cells were centrifuged at 500 g for 10 min, and the pellet was re-suspended in 50 mM Tris.HCl buffer (pH 7.4) containing 10 mM MgCl2. The suspension was homogenized with an electric homogenizer for 10 sec, and was then re-centrifuged at 20,000 g for […] at 4° C. The resultant pellets were resuspended in buffer in the presence of 3 Units/mL adenosine deaminase, and the suspension was stored at −80° C. until the binding experiments. The protein concentration was measured using the Bradford assay.
Each tube in the competitive binding assay contained 100 μl membrane suspension (20 μg protein), 50 μl [^125I]I-AB-MECA (0.5 nM), and 50 μl of increasing concentrations of the test modulators in Tris.HCl buffer (50 mM, pH 8.0) containing 10 mM MgCl2, 1 mM EDTA. Nonspecific binding was determined using 10 μM of 5′-N-ethylcarboxamidoadenosine in the buffer. The mixtures were incubated at 25° C. for 60 min. Binding reactions were terminated by filtration through Whatman GF/B filters under reduced pressure using a MT-24 cell harvester (Brandell, Gaithersburgh, Md., USA). Filters were washed three times with 9 mL ice-cold buffer. Radioactivity was determined in a Beckman 5500B γ-counter.
Binding parameters were calculated using Prism 5.0 software (GraphPAD, San Diego, Calif., USA). IC50 values obtained from competition curves were converted to Ki values using the Cheng-Prusoff equation. Data were expressed as mean±standard error.

Test [2] addresses T1, human A3ARs. Description: Dissociation kinetics of [125I]I-AB-MECA from human A3ARs (allosteric effect). To be noted: 10 μM test compound; binding after 1.5 or 2 hours of dissociation, control without modulator set at 100%; brackets = result of each of two assays; read-out: hA3ARAg Dissociation at 10 μM. On the procedure:
as §1
The dissociation of [^125I]I-AB-MECA was measured as follows. Membranes (20 μg) were pre-incubated at 25° C. with 0.5 nM [^125I]I-AB-MECA, in a total volume of 100 μl of Tris-HCl buffer (50 mM, pH 8.0) containing 10 mM MgCl2, and 1 mM EDTA for 60 min. The dissociation was then initiated by the addition of 3 μM Cl-IB-MECA with or without allosteric modulators. The time course of dissociation of total binding was measured by rapid filtration at appropriate time intervals. Nonspecific binding was measured after 60-min incubation in the presence of 3 μM Cl-IB-MECA. Further assay was as described above.

Each structure is given as a SMILES string.

For `O=C(Nc1cc(Nc2ccccc2)nc2ccccc12)C1CCCC1` [Compound 16, N-(2-anilinoquinolin-4-yl)cyclopentanecarboxamide], the inhibition at 10 µM in test [1] was 61%. In addition, in test [2], the activity at 10 µM was 145%.

As for `O=C(Nc1cc(Nc2ccc(Cl)c(Cl)c2)nc2ccccc12)C1CCCC1` [Compound 17, N-{2-[(3,4-dichlorophenyl)amino]quinolin-4-yl}cyclopentanecarboxamide], the inhibition at 10 µM in test [1] is 50%. Also, the activity at 10 µM in test [2] amounted to 169%.

For `O=C(Nc1cc(NCc2ccccc2)nc2ccccc12)C1CCCC1` [Compound 18, N-[2-(benzylamino)quinolin-4-yl]cyclopentanecarboxamide], the inhibition at 10 µM in test [1] worked out at 28%. Besides, the activity at 10 µM in test [2] was determined as 107%.

As for `Cc1ccc(Nc2cc(NC(=O)C3CCCC3)c3ccccc3n2)cc1` [Compound 19, N-{2-[(4-methylphenyl)amino]quinolin-4-yl}cyclopentanecarboxamide], in test [1], the inhibition at 10 µM was 63%. The activity at 10 µM in test [2] turned out to be 165%.

With `O=C(Nc1cc(Nc2ccc3c(c2)CCC3)nc2ccccc12)C1CCCC1` [Compound 20, N-[2-(2,3-dihydro-1H-inden-5-ylamino)quinolin-4-yl]cyclopentanecarboxamide], in test [1], the inhibition at 10 µM came out at 62%. In addition, the activity at 10 µM in test [2] was 147%.

On to `COc1ccc(Nc2cc(NC(=O)C3CCCC3)c3ccccc3n2)cc1` [Compound 21, N-{2-[(4-methoxyphenyl)amino]quinolin-4-yl}cyclopentanecarboxamide], for which the inhibition at 10 µM in test [1] worked out at 35%. The activity at 10 µM in test [2] was 134%.

Consider `O=C(Nc1cc(NC2CCCC2)nc2ccccc12)C1CCCC1` [Compound 23, N-[2-(cyclopentylamino)quinolin-4-yl]cyclopentanecarboxamide], for which, in test [1], the inhibition at 10 µM was determined as 14%. Also, the activity at 10 µM in test [2] turned out to be 114%.

As to `O=C(Nc1cc(Nc2ccc3cn[nH]c3c2)nc2ccccc12)C1CCCC1` [Compound 24, N-[2-(1H-indazol-6-ylamino)quinolin-4-yl]cyclopentanecarboxamide], in test [1], the inhibition at 10 µM was 90%. Besides, in test [2], the activity at 10 µM was 102%.

`O=C(Nc1cc(Nc2ccc(Cl)c(Cl)c2)nc2ccccc12)C1CCCCC1` [Compound 26, N-{2-[(3,4-dichlorophenyl)amino]quinolin-4-yl}cyclohexanecarboxamide]: the activity at 10 µM in test [2] was at most 249%.

As for `Cc1ccc(Nc2cc(NC(=O)C3CCCCC3)c3ccccc3n2)cc1` [Compound 27, N-{2-[(4-methylphenyl)amino]quinolin-4-yl}cyclohexanecarboxamide], the inhibition at 10 µM in test [1] was 64%. In test [2], the activity at 10 µM was 220%.

`O=C(Nc1cc(Nc2ccc3c(c2)CCC3)nc2ccccc12)C1CCCCC1` [Compound 28, N-[2-(2,3-dihydro-1H-inden-5-ylamino)quinolin-4-yl]cyclohexanecarboxamide]: the inhibition at 10 µM in test [1] was under 50%.

`O=C(Nc1cc(Nc2ccccc2)nc2ccccc12)c1ccccc1` [Compound 29, N-(2-anilinoquinolin-4-yl)benzamide]: the inhibition at 10 µM in test [1] was determined as 76%. The activity at 10 µM in test [2] was determined as 100%.

`O=C(Nc1cc(Nc2ccc(Cl)c(Cl)c2)nc2ccccc12)c1ccccc1` [Compound 30, N-{2-[(3,4-dichloro-phenyl)amino]quinolin-4-yl}benzamide]: in test [1], the inhibition at 10 µM was 37%. The activity at 10 µM in test [2] turned out to be 112%.

As for `O=C(Nc1cc(Nc2ccccc2)nc2ccccc12)c1ccco1` [Compound 31, N-(2-anilinoquinolin-4-yl)-2-furamide], the inhibition at 10 µM in test [1] was determined as 60%. In test [2], the activity at 10 µM was determined as 100%.

On to `O=C(Nc1cc(Nc2ccc(Cl)c(Cl)c2)nc2ccccc12)c1ccco1` [Compound 32, N-{2-[(3,4-dichlorophenyl)amino]quinolin-4-yl}-2-furamide], for which the inhibition at 10 µM in test [1] came to 13%. In addition, the activity at 10 µM in test [2] is 96%.

In the case of `O=C(Nc1cc(Nc2ccccc2)nc2ccccc12)C1CCC1` [Compound 33, N-(2-anilinoquinolin-4-yl)cyclobutanecarboxamide], the inhibition at 10 µM in test [1] amounted to 66%. Further, in test [2], the activity at 10 µM was 119%.

As to `O=C(Nc1cc(Nc2ccc(Cl)c(Cl)c2)nc2ccccc12)C1CCC1` [Compound 34, N-{2-[(3,4-dichlorophenyl)amino]quinolin-4-yl}cyclobutanecarboxamide], the inhibition at 10 µM in test [1] worked out at 51%. Further, the activity at 10 µM in test [2] came to 149%.
